In ChEMBL document CHEMBL4715808, “Discovery of (1S,2R,3S,4S,5R,6R)-2-Amino-3-[(3,4-difluorophenyl)sulfanylmethyl]-4-hydroxy-bicyclo[3.1.0]hexane-2,6-dicarboxylic Acid Hydrochloride (LY3020371·HCl): A Potent, Metabotropic Glutamate 2/3 Receptor Antagonist with Antidepressant-Like Activity” (J Med Chem, 2016):

Legend:
[1] = target: T1, Metabotropic glutamate receptor 3 (Homo sapiens, UniProt Q14832); assay: Displacement of [3H]-LY459477 from recombinant human mGlu3 receptor expressed in hamster AV12 cell membranes co-expressing rat EAAT1 incubated for 90 mins by top count scintillation method; parameters: species or system Cell membrane
T1 sequence (Q14832 whole entry): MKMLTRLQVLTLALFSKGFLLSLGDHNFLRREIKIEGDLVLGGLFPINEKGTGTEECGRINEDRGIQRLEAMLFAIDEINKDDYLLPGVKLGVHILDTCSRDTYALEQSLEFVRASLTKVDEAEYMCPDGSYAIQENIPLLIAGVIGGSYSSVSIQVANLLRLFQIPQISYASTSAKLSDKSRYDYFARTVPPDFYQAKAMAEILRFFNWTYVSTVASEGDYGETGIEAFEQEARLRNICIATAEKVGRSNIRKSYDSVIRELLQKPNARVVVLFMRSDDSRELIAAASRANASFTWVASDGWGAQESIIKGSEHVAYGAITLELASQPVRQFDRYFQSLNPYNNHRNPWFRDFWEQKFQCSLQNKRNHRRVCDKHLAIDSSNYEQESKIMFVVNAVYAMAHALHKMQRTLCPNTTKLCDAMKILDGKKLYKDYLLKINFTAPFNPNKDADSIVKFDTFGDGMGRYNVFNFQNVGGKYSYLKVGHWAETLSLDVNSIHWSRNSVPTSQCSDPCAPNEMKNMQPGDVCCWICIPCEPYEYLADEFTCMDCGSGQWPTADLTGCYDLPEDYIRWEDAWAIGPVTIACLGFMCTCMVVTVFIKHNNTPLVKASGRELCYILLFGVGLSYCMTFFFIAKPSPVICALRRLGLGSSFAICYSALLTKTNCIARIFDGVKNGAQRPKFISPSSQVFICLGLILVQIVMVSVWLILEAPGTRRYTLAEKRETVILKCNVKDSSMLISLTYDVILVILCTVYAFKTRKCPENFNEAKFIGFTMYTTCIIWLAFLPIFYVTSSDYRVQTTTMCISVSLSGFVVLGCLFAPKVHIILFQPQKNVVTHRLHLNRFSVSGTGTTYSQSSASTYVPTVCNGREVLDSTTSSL

[2] = target: T1, Metabotropic glutamate receptor 3; assay: Antagonist activity at human recombinant mGlu3 receptor stably expressed in golden hamster AV12 cells co-expressing rat EAAT1 assessed as reduction in DCG IV-induced inhibition of forskolin-stimulated cAMP accumulation preincubated for 20 mins followed by incubation with cAMP-d2 conjugate and anti-cAMP cryptate for 1 hr by HTRF assay; assay type: functional, cell-based
[3] = target: T2, Metabotropic glutamate receptor 2 (Homo sapiens, UniProt Q14416)
T2 sequence (Q14416 whole entry): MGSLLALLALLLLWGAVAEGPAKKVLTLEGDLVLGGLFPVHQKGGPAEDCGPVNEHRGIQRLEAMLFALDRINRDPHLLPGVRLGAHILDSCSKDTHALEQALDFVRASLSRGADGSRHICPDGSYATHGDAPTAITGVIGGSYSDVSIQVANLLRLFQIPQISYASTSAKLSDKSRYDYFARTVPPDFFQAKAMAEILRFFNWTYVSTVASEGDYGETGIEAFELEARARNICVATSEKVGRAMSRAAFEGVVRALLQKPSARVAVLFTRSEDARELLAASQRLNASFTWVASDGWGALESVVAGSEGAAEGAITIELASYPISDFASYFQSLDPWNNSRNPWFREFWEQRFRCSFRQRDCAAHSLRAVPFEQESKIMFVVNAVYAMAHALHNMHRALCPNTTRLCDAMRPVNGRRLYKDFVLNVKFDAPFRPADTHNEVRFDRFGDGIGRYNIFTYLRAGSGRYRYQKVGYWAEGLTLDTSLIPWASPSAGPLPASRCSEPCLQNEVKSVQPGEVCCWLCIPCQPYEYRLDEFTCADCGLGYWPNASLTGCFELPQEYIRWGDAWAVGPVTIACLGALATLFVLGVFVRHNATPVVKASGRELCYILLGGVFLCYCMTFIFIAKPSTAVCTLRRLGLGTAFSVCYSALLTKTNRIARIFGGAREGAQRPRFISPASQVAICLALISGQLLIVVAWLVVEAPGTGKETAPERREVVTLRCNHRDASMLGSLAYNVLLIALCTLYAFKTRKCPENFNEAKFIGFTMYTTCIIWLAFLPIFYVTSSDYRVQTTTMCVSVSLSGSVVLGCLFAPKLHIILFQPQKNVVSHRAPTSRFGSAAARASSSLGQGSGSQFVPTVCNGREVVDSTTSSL
Description: Antagonist activity at human recombinant mGlu2 receptor stably expressed in golden hamster AV12 cells co-expressing rat EAAT1 assessed as reduction in DCG IV-induced inhibition of forskolin-stimulated cAMP accumulation preincubated for 20 mins followed by incubation with cAMP-d2 conjugate and anti-cAMP cryptate for 1 hr by HTRF assay

[4] = target: T2, Metabotropic glutamate receptor 2; remark: listed apart in the source
Description: Displacement of [3H]-LY459477 from recombinant human mGlu2 receptor expressed in hamster AV12 cell membranes co-expressing rat EAAT1 incubated for 90 mins by top count scintillation method

[5] = Antagonist activity at human recombinant mGlu7 stably expressed in golden hamster AV12 cell membrane co-expressing Galpha15 assessed as reduction in glutamate-induced calcium influx incubated for 90 to 120 min by Fluo-4-AM dye based FLIPR assay; assay type: cell membranes
[6] = Half life in CD1 mouse plasma in fasting state at 11 mg/kg, ip administered as single dose measured after 24 hrs by LC-MS/MS analysis; assay type: ADME, organism-based
[7] = target: T3, Metabotropic glutamate receptor 6 (Homo sapiens, UniProt O15303); assay: Agonist activity at human recombinant mGlu6 stably expressed in golden hamster AV12 cell membrane co-expressing Galpha15 assessed as assessed as increase in calcium influx incubated for 90 to 120 min by Fluo-4-AM dye based FLIPR assay; assay type: functional, cell membranes
T3 sequence (O15303 whole entry): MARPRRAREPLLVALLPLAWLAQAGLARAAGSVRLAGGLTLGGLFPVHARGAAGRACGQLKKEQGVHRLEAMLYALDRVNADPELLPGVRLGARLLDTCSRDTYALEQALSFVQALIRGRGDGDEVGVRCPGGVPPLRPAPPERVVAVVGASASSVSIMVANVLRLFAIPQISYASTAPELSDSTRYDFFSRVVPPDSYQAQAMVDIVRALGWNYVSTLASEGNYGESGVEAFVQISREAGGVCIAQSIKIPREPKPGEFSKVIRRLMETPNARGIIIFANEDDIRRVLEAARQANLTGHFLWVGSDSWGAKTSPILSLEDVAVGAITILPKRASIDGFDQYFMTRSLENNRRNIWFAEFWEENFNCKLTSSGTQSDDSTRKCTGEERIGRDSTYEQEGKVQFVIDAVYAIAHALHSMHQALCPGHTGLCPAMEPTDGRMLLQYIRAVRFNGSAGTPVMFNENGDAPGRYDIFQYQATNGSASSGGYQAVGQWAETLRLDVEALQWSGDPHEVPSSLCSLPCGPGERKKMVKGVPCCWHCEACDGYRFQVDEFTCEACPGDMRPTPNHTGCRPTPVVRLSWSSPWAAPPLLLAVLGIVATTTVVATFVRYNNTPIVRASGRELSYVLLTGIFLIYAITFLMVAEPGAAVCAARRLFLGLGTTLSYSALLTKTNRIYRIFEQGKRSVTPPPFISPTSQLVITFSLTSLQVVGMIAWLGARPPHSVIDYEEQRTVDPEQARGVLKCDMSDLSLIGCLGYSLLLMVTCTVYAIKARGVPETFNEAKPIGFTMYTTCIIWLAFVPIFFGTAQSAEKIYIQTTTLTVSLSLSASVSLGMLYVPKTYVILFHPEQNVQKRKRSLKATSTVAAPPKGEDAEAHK

[8] = target: T1, Metabotropic glutamate receptor 3; assay: Antagonist activity at human recombinant mGlu3 stably expressed in golden hamster AV12 cell membrane co-expressing Galpha15 assessed as assessed as reduction in glutamate-induced calcium influx incubated for 90 to 120 min by Fluo-4-AM dye based FLIPR assay; assay type: functional, cell membranes
[9] = AUC (0 to 24 hrs) in CD1 mouse plasma in fasting state at 1.1 mg/kg, ip administered as single dose measured after 24 hrs by LC-MS/MS analysis; assay type: ADME, organism-based; parameters: route intraperitoneal, dose 1.1 mg/kg, time 24 hrs
[10] = Cmax in CD1 mouse plasma in fasting state at 1.1 mg/kg, ip administered as single dose measured after 24 hrs by LC-MS/MS analysis; assay type: ADME, organism-based; parameters: route intraperitoneal, dose 1.1 mg/kg, time 24 hrs
[11] = Tmax in CD1 mouse plasma in fasting state at 1.1 mg/kg, ip administered as single dose measured after 24 hrs by LC-MS/MS analysis; assay type: ADME, organism-based
[12] = Unbound brain concentration in CD1 mouse at 1 mg/kg, ip administered as single dose by LC-MS/MS analysis; assay type: ADME, organism-based; settings: in vivo
[13] = Protein binding in human plasma assessed as unbound fraction; assay type: ADME, cell-free
[14] = Metabolic stability of compound in mouse hepatocytes assessed as parent compound loss at 2 uM; assay type: ADME, cell-based, Hepatocyte; settings: read-out: Drug degradation
[15] = target: T4, Metabotropic glutamate receptor 5 (Homo sapiens, UniProt P41594); assay: Antagonist activity at human recombinant mGlu5 stably expressed in golden hamster AV12 cell membrane co-expressing Gq assessed as reduction in glutamate-induced calcium influx incubated for 90 to 120 min by Fluo-4-AM dye based FLIPR assay; assay type: functional, cell membranes
T4 sequence (P41594 whole entry): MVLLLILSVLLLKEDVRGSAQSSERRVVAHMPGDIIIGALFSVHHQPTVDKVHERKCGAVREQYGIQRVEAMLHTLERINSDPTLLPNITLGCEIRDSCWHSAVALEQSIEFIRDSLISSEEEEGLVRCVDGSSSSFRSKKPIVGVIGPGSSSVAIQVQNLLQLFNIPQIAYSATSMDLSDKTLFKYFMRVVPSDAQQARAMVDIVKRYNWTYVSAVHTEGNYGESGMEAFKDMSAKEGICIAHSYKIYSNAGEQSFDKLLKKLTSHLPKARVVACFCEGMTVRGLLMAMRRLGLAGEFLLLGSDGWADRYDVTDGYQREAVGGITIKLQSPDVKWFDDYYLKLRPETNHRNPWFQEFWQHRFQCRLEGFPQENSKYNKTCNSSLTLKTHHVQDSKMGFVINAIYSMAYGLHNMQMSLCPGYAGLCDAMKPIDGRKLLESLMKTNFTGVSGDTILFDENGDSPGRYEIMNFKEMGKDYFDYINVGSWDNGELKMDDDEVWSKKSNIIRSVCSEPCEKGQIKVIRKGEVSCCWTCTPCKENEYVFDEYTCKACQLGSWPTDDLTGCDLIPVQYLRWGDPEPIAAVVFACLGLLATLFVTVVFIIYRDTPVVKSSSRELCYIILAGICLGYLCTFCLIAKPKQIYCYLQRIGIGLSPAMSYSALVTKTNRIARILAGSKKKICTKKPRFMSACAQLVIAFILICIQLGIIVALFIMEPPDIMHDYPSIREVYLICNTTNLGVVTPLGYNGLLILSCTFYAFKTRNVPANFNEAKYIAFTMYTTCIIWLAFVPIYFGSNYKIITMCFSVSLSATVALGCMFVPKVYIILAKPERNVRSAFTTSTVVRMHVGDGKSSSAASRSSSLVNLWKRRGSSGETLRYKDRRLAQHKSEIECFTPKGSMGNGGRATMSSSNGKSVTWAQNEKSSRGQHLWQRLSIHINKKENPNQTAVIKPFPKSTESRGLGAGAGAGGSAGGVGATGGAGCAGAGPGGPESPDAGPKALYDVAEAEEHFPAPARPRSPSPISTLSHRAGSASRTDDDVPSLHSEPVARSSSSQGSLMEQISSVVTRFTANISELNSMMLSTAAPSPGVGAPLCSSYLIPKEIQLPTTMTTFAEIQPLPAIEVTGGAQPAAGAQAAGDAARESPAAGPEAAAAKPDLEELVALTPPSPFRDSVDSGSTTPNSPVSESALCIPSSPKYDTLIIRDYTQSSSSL

[16] = Unbound plasma concentration in CD1 mouse at 10 mg/kg, ip administered as single dose by LC-MS/MS analysis; assay type: ADME, organism-based; settings: in vivo
[17] = Clearance in male Sprague-Dawley rat at 0.3 to 10 mg/kg, iv; assay type: ADME, organism-based; settings: in vivo, dose 0.3-10 mg/kg
CYP2D6 = CYP2D6 (Homo sapiens, UniProt P10635); assay: Inhibition of human CYP2D6 at 10 uM relative to control; assay type: ADME
[18] = Metabolic stability of compound in rat hepatocytes assessed as parent compound loss at 2 uM; assay type: ADME, cell-based, Hepatocyte; settings: read-out: Drug degradation
[19] = target: T4, Metabotropic glutamate receptor 5; assay: Agonist activity at human recombinant mGlu5 stably expressed in golden hamster AV12 cell membrane co-expressing Gq assessed as assessed as increase in calcium influx incubated for 90 to 120 min by Fluo-4-AM dye based FLIPR assay; assay type: functional, cell membranes
[20] = Agonist activity at human recombinant mGlu7 stably expressed in golden hamster AV12 cell membrane co-expressing Galpha15 assessed as assessed as increase in calcium influx incubated for 90 to 120 min by Fluo-4-AM dye based FLIPR assay; assay type: cell membranes
[21] = Half life in CD1 mouse plasma in fasting state at 3.3 mg/kg, ip administered as single dose measured after 24 hrs by LC-MS/MS analysis; assay type: ADME, organism-based
[22] = Tmax in CD1 mouse plasma in fasting state at 11 mg/kg, ip administered as single dose measured after 24 hrs by LC-MS/MS analysis; assay type: ADME, organism-based
[23] = target: T5, Metabotropic glutamate receptor 4 (Homo sapiens, UniProt Q14833); assay: Antagonist activity human recombinant mGlu4 stably expressed in golden hamster AV12 cell membrane co-expressing Galpha15 assessed as reduction in glutamate-induced calcium influx incubated for 90 to 120 min by Fluo-4-AM dye based FLIPR assay; assay type: functional, cell membranes
[24] = Cmax in CD1 mouse plasma in fasting state at 11 mg/kg, ip administered as single dose measured after 24 hrs by LC-MS/MS analysis; assay type: ADME, organism-based; parameters: route intraperitoneal, dose 11 mg/kg, time 24 hrs
[25] = Aqueous solubility of compound at pH 7.4; assay type: physicochemical; settings: aqueous medium
[26] = AUC (0 to 24 hrs) in CD1 mouse plasma in fasting state at 11 mg/kg, ip administered as single dose measured after 24 hrs by LC-MS/MS analysis; assay type: ADME, organism-based; parameters: route intraperitoneal, dose 11 mg/kg, time 24 hrs
[27] = Metabolic stability of compound in human hepatocytes assessed as parent compound loss at 2 uM; assay type: ADME, cell-based, Hepatocyte; settings: read-out: Drug degradation
[28] = Unbound plasma concentration in CD1 mouse at 1 mg/kg, ip administered as single dose by LC-MS/MS analysis; assay type: ADME, organism-based; settings: in vivo
[29] = Dose normalized AUC in CD1 mouse plasma in fasting state at 1.1 mg/kg, ip administered as single dose measured after 24 hrs by LC-MS/MS analysis; assay type: ADME, organism-based; settings: in vivo
[30] = Unbound brain concentration in CD1 mouse at 10 mg/kg, ip administered as single dose by LC-MS/MS analysis; assay type: ADME, organism-based; settings: in vivo
[31] = target: T6, Metabotropic glutamate receptor 1 (Homo sapiens, UniProt Q13255); assay: Antagonist activity at human recombinant mGlu1 stably expressed in golden hamster AV12 cell membrane co-expressing Gq assessed as reduction in glutamate-induced calcium influx incubated for 90 to 120 min by Fluo-4-AM dye based FLIPR assay; assay type: functional, cell membranes
T6 sequence (Q13255 whole entry): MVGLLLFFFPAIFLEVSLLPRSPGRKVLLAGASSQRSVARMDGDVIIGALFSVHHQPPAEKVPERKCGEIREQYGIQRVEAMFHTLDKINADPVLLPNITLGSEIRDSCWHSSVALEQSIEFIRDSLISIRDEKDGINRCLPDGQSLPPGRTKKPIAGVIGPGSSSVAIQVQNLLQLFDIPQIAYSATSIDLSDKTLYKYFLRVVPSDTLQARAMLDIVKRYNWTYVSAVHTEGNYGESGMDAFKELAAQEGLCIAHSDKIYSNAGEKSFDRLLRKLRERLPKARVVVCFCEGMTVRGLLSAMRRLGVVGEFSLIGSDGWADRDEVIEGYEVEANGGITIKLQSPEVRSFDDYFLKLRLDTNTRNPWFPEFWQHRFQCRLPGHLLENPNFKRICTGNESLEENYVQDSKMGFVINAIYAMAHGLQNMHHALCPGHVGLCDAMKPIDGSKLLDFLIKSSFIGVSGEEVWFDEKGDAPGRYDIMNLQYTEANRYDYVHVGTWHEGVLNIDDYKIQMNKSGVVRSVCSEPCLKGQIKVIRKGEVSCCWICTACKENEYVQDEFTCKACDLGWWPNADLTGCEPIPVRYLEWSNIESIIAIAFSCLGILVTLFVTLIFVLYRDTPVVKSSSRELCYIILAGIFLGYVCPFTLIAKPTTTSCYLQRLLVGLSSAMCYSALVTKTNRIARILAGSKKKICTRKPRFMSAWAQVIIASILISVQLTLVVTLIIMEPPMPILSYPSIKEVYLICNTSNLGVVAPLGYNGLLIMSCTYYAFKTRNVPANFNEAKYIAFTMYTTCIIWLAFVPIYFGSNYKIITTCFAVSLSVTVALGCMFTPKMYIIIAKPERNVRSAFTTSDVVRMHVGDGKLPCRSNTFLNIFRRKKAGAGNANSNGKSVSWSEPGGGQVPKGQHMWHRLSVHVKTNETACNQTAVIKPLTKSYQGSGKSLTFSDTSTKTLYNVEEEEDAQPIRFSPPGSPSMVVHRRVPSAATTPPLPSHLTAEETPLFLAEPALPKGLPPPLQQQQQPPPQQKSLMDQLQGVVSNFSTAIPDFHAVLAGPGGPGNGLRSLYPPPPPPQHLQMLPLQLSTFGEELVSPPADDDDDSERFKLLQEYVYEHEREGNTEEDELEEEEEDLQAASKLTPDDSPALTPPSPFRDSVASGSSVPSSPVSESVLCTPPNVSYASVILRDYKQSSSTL

[32] = Half life in CD1 mouse plasma in fasting state at 1.1 mg/kg, ip administered as single dose measured after 24 hrs by LC-MS/MS analysis; assay type: ADME, organism-based
[33] = target: T5, Metabotropic glutamate receptor 4; assay: Agonist activity at human recombinant mGlu4 stably expressed in golden hamster AV12 cell membrane co-expressing Galpha15 assessed as assessed as increase in calcium influx incubated for 90 to 120 min by Fluo-4-AM dye based FLIPR assay; assay type: functional, cell membranes
Mus musculus [34] = assay: Antidepressant activity in ip dosed male Swiss mouse assessed as reduction in immobility time measured for last 4 mins of 6 mins test by forced swim test; assay type: functional; settings: 0.1 h
[35] = Unbound plasma concentration in CD1 mouse at 3 mg/kg, ip administered as single dose by LC-MS/MS analysis; assay type: ADME, organism-based; settings: in vivo
CYP3A4 = CYP3A4 (Homo sapiens, UniProt P08684); assay: Inhibition of human CYP3A4 at 10 uM relative to control; assay type: ADME
[36] = Protein binding in rat plasma assessed as unbound fraction; assay type: ADME, cell-free
[37] = target: T3, Metabotropic glutamate receptor 6; assay: Antagonist activity at human recombinant mGlu6 stably expressed in golden hamster AV12 cell membrane co-expressing Galpha15 assessed as reduction in glutamate-induced calcium influx incubated for 90 to 120 min by Fluo-4-AM dye based FLIPR assay; assay type: functional, cell membranes
[38] = AUC (0 to 24 hrs) in CD1 mouse plasma in fasting state at 3.3 mg/kg, ip administered as single dose measured after 24 hrs by LC-MS/MS analysis; assay type: ADME, organism-based; parameters: route intraperitoneal, time 24 hrs, dose 3.3 mg/kg
[39] = target: T6, Metabotropic glutamate receptor 1; assay: Agonist activity at human recombinant mGlu1 stably expressed in golden hamster AV12 cell membrane co-expressing Gq assessed as assessed as increase in calcium influx incubated for 90 to 120 min by Fluo-4-AM dye based FLIPR assay; assay type: functional, cell membranes
[40] = Unbound brain concentration in CD1 mouse at 3 mg/kg, ip administered as single dose by LC-MS/MS analysis; assay type: ADME, organism-based; settings: in vivo
[41] = Metabolic stability of compound in dog hepatocytes assessed as parent compound loss at 2 uM; assay type: ADME, cell-based, Canis lupus familiaris, Hepatocyte; settings: read-out: Drug degradation
CYP2C9 = CYP2C9 (Homo sapiens, UniProt P11712); assay: Inhibition of human CYP2C9 at 10 uM relative to control; assay type: ADME
[42] = Cmax in CD1 mouse plasma in fasting state at 3.3 mg/kg, ip administered as single dose measured after 24 hrs by LC-MS/MS analysis; assay type: ADME, organism-based; parameters: route intraperitoneal, dose 3.3 mg/kg, time 24 hrs
Mus musculus [43] = assay: Antidepressant activity in male Swiss mouse assessed as reduction in immobility time at 1 to 10 mg/kg, ip measured for last 4 mins of 6 mins test by forced swim test relative to control; assay type: functional; settings: dose 1-10 mg/kg, 0.1 h
[44] = Dose normalized AUC in CD1 mouse plasma in fasting state at 3.3 mg/kg, ip administered as single dose measured after 24 hrs by LC-MS/MS analysis; assay type: ADME, organism-based; settings: in vivo
[45] = Dose normalized AUC in CD1 mouse plasma in fasting state at 11 mg/kg, ip administered as single dose measured after 24 hrs by LC-MS/MS analysis; assay type: ADME, organism-based; settings: in vivo
[46] = Tmax in CD1 mouse plasma in fasting state at 3.3 mg/kg, ip administered as single dose measured after 24 hrs by LC-MS/MS analysis; assay type: ADME, organism-based

N[C@]1(C(=O)O)[C@@H]2[C@@H](C(=O)O)[C@@H]2[C@H](O)[C@H]1CSc1ccccc1
Ki [1]: 19.2 nM | IC50 [2]: 202 nM

N[C@]1(C(=O)O)[C@@H]2[C@@H](C(=O)O)[C@@H]2[C@H](O)[C@H]1CSc1cccc(F)c1
IC50 [3]: 76.2 nM | Ki [1]: 25.1 nM | IC50 [2]: 272 nM | Ki [4]: 43.7 nM

CC(=O)N[C@H]1[C@H]2[C@H](C(=O)O)[C@H]2[C@](N)(C(=O)O)[C@@H]1CSc1ccc(F)c(C)c1
IC50 [3]: 26.2 nM | Ki [1]: 7.7 nM | IC50 [2]: 12.4 nM | Ki [4]: 9.2 nM

Cl.N[C@]1(C(=O)O)[C@@H]2[C@@H](C(=O)O)[C@@H]2[C@H](O)[C@H]1CSc1ccc(F)c(F)c1
IC50 [5]: 1260 nM | half-life [6]: 64.2 min | EC50 [7]: > 25000 nM | IC50 [8]: 2.5 nM | AUC(0-t) at 24 h [9]: 5.03 µM·h | Cmax [10]: 4.17 µM | Ki [1]: 2.5 nM | Tmax [11]: 15 min | Drug uptake(free) [12]: 8.1 nM | fraction unbound [13]: > 0.6 | metabolised at 2 µM [14]: < 15% | IC50 [15]: > 12500 nM | Cp(f) [16]: 7.731 µM | clearance [17]: 5.83 mL/min/kg | inhibition at 10 µM (CYP2D6): < 10% | metabolised at 2 µM [18]: < 15% | EC50 [19]: > 25000 nM | EC50 [20]: > 16700 nM | half-life [21]: 30 min | Tmax [22]: 15 min | IC50 [23]: > 12500 nM | Cmax [24]: 38.4 µM | solubility [25]: > 100 µM | AUC(0-t) at 24 h [26]: 45.5 µM·h | metabolised at 2 µM [27]: < 15% | Cp(f) [28]: 0.84 µM | AUC/dose [29]: 4571 nM·h/mg/kg | Drug uptake(free) [30]: 151.9 nM | IC50 [31]: > 12500 nM | half-life [32]: 42 min | EC50 [33]: > 25000 nM | ED60 (Mus musculus [34]): 4.9 mg/kg | Cp(f) [35]: 3.956 µM | inhibition at 10 µM (CYP3A4): < 10% | fraction unbound [36]: > 0.6 | IC50 [37]: 4010 nM | AUC(0-t) at 24 h [38]: 15.2 µM·h | EC50 [39]: > 25000 nM | Drug uptake(free) [40]: 47.3 nM | metabolised at 2 µM [41]: < 15% | inhibition at 10 µM (CYP2C9): < 10% | Cmax [42]: 20.6 µM | %max (Mus musculus [43]): 67.4% | AUC/dose [44]: 4601 nM·h/mg/kg | AUC/dose [45]: 4134 nM·h/mg/kg | Tmax [46]: 15 min

N[C@]1(C(=O)O)[C@@H]2[C@@H](C(=O)O)[C@@H]2[C@H](O)[C@H]1CSc1ccc(Cl)c(Cl)c1
IC50 [3]: 9.8 nM | Ki [1]: 9.4 nM | IC50 [2]: 56.5 nM | Ki [4]: 8.4 nM
